A value given as a limit tells only on which side of the number the result lay.

The assay concerns the target T1, human URAT1 (Homo sapiens, UniProt Q96S37).
T1 construct: Human URAT1 full length cDNA was subcloned to expression vector pcDNA3.1; expressed in transfected cells; host or cells: HEK293 cells (pcDNA3.1, geneticin-selected)
T1 sequence (Q96S37 1-553): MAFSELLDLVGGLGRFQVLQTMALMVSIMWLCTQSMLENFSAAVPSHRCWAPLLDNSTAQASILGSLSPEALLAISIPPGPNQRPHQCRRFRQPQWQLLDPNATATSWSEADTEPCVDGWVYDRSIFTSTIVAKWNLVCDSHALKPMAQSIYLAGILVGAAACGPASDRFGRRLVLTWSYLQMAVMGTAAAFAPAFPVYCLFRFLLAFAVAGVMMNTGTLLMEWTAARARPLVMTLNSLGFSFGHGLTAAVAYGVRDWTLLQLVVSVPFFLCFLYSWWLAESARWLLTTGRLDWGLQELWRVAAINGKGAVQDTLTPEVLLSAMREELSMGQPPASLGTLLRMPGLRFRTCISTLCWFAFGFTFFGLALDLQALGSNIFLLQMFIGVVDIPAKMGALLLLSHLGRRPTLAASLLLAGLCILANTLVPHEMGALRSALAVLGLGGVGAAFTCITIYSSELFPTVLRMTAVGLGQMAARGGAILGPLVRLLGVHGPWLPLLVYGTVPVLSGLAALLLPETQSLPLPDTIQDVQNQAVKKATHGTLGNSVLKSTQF
Kind of assay: Uric acid transport inhibitory test using human URAT1-expressing cells. The format is cell-based. The note with it: human URAT1 expressing HEK293 cells, uptake of 14C-labeled uric acid for 5 min, room temperature; read-out: hURAT1 (IC50, concentration necessary for inhibiting the uric acid transport rate by 50%). From the text: Reference Experimental Example 1 Uric Acid Transport Inhibitory Test Using Human Urat1-Expressing Cells
Human URAT1 full length cDNA was subcloned to expression vector pcDNA3.1 and human URAT1 gene was transfected into human embryonic kidney derived cell line (HEK293 cells) by liposome method using Lipofectamine2000. Simultaneously, HEK293 cells transfected with expression vector pcDNA3.1 alone (hereinafter mock cells) were also produced. HEK293 cells expressing human URAT1 gene or mock cells were selected with geneticin resistance as an index. The functional expression of human URAT1 gene was confirmed by a method similar to the following method, using transport of uric acid labeled with ^14C into the cells as an index.
Human URAT1 expressing HEK293 cells or mock cells were cultured in Dulbecco's modified Eagle's MEM medium (high glucose) containing 10% fetal bovine serum, 0.5 mg/mL geneticin sulfate, 100 units/mL penicillin and 100 μg/mL streptomycin under the conditions of 37° C. and 5% CO2 in an incubator. The cells were plated in a 96 well plate (poly-D-Lysine coated) at 1×10^5 cells/well and the following uric acid transport inhibitory test was performed 24 hr later. This test was performed at room temperature.
After the medium was removed by aspiration from each well, the cells were washed once with Hank's Balanced Salt Solution (HBSS) and preincubated with HBSS ([…]) for 5 min. HBSS was aspirated and an assay buffer (wherein NaCl in the above-mentioned HBSS had been substituted with Na-gluconate) containing various concentrations of the Example compound and a radioactive ligand (uric acid labeled with 14C; final concentration […]) was added to each well at […] and an uptake reaction was carried out for 5 min. After the reaction, the cells were washed twice with ice-cold HBSS ([…]), and Microscin ti TM 20 (PerkinElmer) was added at […]. The cells were lysed by stirring and the radioactivity of each well was measured in a liquid scintillation counter (TOP COUNT, Packard).
The uric acid transport rate (%) of the Example compound at each concentration was calculated relative to the radioactivity (difference in radioactivity between human URAT1 expressing HEK293 cells and mock cells without addition of Example compound (DMSO addition)) showing URAT1 specific uric acid transport as 100%, and the concentration (IC50) of the Example compound necessary for inhibiting the uric acid transport rate by 50% was determined. In Table-Table, “+++” means IC50 value of less than 100 nM, “++” means IC50 value of 100 nM to less than 1000 nM, and “+” means IC50 value of 1000 nM to less than 3000 nM.
For `O=C(c1cc(Cl)c(O)c(Cl)c1)N1CCOc2cccnc21` [Example 36, (3,5-dichloro-4-hydroxyphenyl)-(2,3-dihydropyrido[3,2-b][1,4]oxazin-4-yl)-methanone], the IC50 was 100 to 1000 nM.

As for `O=C(c1cc(Cl)cc(Cl)c1O)N1CCOc2ccccc21` [Example 38, (3,5-dichloro-2-hydroxyphenyl)-(2,3-dihydrobenzo[1,4]oxazin-4-yl)-methanone], the IC50 was 100 to 1000 nM.

In the case of `O=C(c1ccc(O)c(C(F)(F)F)c1)N1CCOc2ccccc21` [Example 39, (2,3-dihydrobenzo[1,4]oxazin-4-yl)-(4-hydroxy-3-trifluoromethylphenyl)-methanone], the IC50 was below 100 nM.

Consider `COc1cc(C(=O)N2CCOc3ccccc32)cc(Cl)c1O` [Example 40, (3-chloro-4-hydroxy-5-methoxyphenyl)-(2,3-dihydrobenzo[1,4]oxazin-4-yl)-methanone], for which the IC50 lay within 100 to 1000 nM.

As to `O=C(c1ccc(Cl)c(O)c1)N1CCOc2ccccc21` [Example 41, (4-chloro-3-hydroxyphenyl)-(2,3-dihydrobenzo[1,4]oxazin-4-yl)-methanone], the IC50 fell in the range of 100 to 1000 nM.

Consider `O=C(c1cc(Cl)c(O)c(Cl)c1)N1CCOc2ccc(F)cc21` [Example 44, (3,5-dichloro-4-hydroxyphenyl)-(6-fluoro-2,3-dihydrobenzo[1,4]oxazin-4-yl)-methanone], for which the IC50 is below 100 nM.

For the molecule `O=C(c1cc(Cl)c(O)c(Cl)c1O)N1CCOc2ccccc21` [Example 50, (3,5-dichloro-2,4-dihydroxyphenyl)-(2,3-dihydrobenzo[1,4]oxazin-4-yl)-methanone], the IC50 was 100 to 1000 nM.

Consider `O=C(c1cc(Cl)c(O)c(Cl)c1)N1CCOc2ccc(Cl)cc21` [Example 51, (6-chloro-2,3-dihydrobenzo[1,4]oxazin-4-yl)-(3,5-dichloro-4-hydroxyphenyl)-methanone], for which the IC50 is below 100 nM.

Take `O=C(c1cc(Cl)c(O)c(Cl)c1)N1CCOc2cc(Cl)ccc21` [Example 52, (7-chloro-2,3-dihydrobenzo[1,4]oxazin-4-yl)-(3,5-dichloro-4-hydroxyphenyl)-methanone]: the IC50 lay within 100 to 1000 nM.

On to `O=C(c1cc(Cl)c(O)c(Cl)c1)N1CCNc2ccccc21` [Example 54, (3,5-dichloro-4-hydroxyphenyl)-(3,4-dihydro-2H-quinoxalin-1-yl)-methanone], for which the IC50 is 100 to 1000 nM.

In the case of `COC(=O)c1ccc2c(c1)N(C(=O)c1cc(Cl)c(O)c(Cl)c1)CCO2` [Example 55, methyl 4-(3,5-dichloro-4-hydroxybenzoyl)-3,4-dihydro-2H-benzo[1,4]oxazine-6-carboxylate], the IC50 was in the range of 100 to 1000 nM.

In the case of `O=C(c1cc(Cl)c(O)c(Cl)c1)N1CCOc2ccc(CO)cc21` [Example 56, (3,5-dichloro-4-hydroxyphenyl)-(6-hydroxymethyl-2,3-dihydrobenzo[1,4]oxazin-4-yl)-methanone], the IC50 was 100 to 1000 nM.

In the case of `COC(=O)c1cccc2c1N(C(=O)c1cc(Cl)c(O)c(Cl)c1)CCO2` [Example 58, methyl 4-(3,5-dichloro-4-hydroxybenzoyl)-3,4-dihydro-2H-benzo[1,4]oxazine-5-carboxylate], the IC50 lay within 100 to 1000 nM.

Consider `COC(=O)c1ccc2c(c1)OCCN2C(=O)c1cc(Cl)c(O)c(Cl)c1` [Example 59, methyl 4-(3,5-dichloro-4-hydroxybenzoyl)-3,4-dihydro-2H-benzo[1,4]oxazine-7-carboxylate], for which the IC50 lay in the range of 1000 to 3000 nM.

In the case of `COC(=O)c1cccc2c1OCCN2C(=O)c1cc(Cl)c(O)c(Cl)c1` [Example 61, methyl 4-(3,5-dichloro-4-hydroxybenzoyl)-3,4-dihydro-2H-benzo[1,4]oxazine-8-carboxylate], the IC50 was 1000 to 3000 nM.

In the case of `O=C(c1cc(Cl)c(O)c(Cl)c1)N1c2ccccc2Oc2ccccc21` [Example 64, (3,5-dichloro-4-hydroxyphenyl)-phenoxazin-10-ylmethanone], the IC50 fell in the range of 1000 to 3000 nM.

As for `O=C(c1cc(Cl)c(O)c(Cl)c1)N1CCOc2ccc(-c3ccccc3)cc21` [Example 65, (3,5-dichloro-4-hydroxyphenyl)-(6-phenyl-2,3-dihydrobenzo[1,4]oxazin-4-yl)-methanone], the IC50 is 1000 to 3000 nM.

On to `Cc1cc(C)c2c(c1)N(C(=O)c1cc(Cl)c(O)c(Cl)c1)CCO2` [Example 66, (3,5-dichloro-4-hydroxyphenyl)-(6,8-dimethyl-2,3-dihydrobenzo[1,4]oxazin-4-yl)-methanone], for which the IC50 is 100 to 1000 nM.

As for `O=C(c1cc(Cl)c(O)c(Cl)c1)N1CCOc2ccc([N+](=O)[O-])cc21` [Example 67, (3,5-dichloro-4-hydroxyphenyl)-(6-nitro-2,3-dihydrobenzo[1,4]oxazin-4-yl)-methanone], the IC50 is below 100 nM.

Consider `Nc1ccc2c(c1)N(C(=O)c1cc(Cl)c(O)c(Cl)c1)CCO2` [Example 68, (6-amino-2,3-dihydrobenzo[1,4]oxazin-4-yl)-(3,5-dichloro-4-hydroxyphenyl)-methanone], for which the IC50 is 100 to 1000 nM.

As for `O=C(c1cc(Br)c(O)c(Br)c1)N1CCOc2ccc([N+](=O)[O-])cc21` [Example 69, (3,5-dibromo-4-hydroxyphenyl)-(6-nitro-2,3-dihydrobenzo[1,4]oxazin-4-yl)-methanone], the IC50 is below 100 nM.

On to `O=C(c1cc(Cl)c(O)c(Cl)c1)N1CCOc2cc([N+](=O)[O-])ccc21` [Example 70, (3,5-dichloro-4-hydroxyphenyl)-(7-nitro-2,3-dihydrobenzo[1,4]oxazin-4-yl)-methanone], for which the IC50 lay in the range of 100 to 1000 nM.

For the molecule `Nc1ccc2c(c1)OCCN2C(=O)c1cc(Cl)c(O)c(Cl)c1` [Example 71, (7-amino-2,3-dihydrobenzo[1,4]oxazin-4-yl)-(3,5-dichloro-4-hydroxyphenyl)-methanone], the IC50 was 1000 to 3000 nM.

With `CC(=O)N1CCN(C(=O)c2cc(Cl)c(O)c(Cl)c2)c2ccccc21` [Example 73, 1-[4-(3,5-dichloro-4-hydroxybenzoyl)-3,4-dihydro-2H-quinoxalin-1-yl]-ethanone], the IC50 was in the range of 100 to 1000 nM.

For the molecule `CN1CCN(C(=O)c2cc(Cl)c(O)c(Cl)c2)c2ccccc21` [Example 74, (3,5-dichloro-4-hydroxyphenyl)-(4-methyl-3,4-dihydro-2H-quinoxalin-1-yl)-methanone], the IC50 lay in the range of 100 to 1000 nM.

Consider `O=C(c1ccc(O)c([N+](=O)[O-])c1)N1CCOc2ccccc21` [Example 75, (2,3-dihydrobenzo[1,4]oxazin-4-yl)-(4-hydroxy-3-nitrophenyl)-methanone], for which the IC50 lay within 100 to 1000 nM.

As for `O=C(c1cc(Cl)c(O)c(Cl)c1)N1CCc2ccccc21` [Example 77, (3,5-dichloro-4-hydroxyphenyl)-(2,3-dihydroindol-1-yl)-methanone], the IC50 fell in the range of 100 to 1000 nM.

Consider `Nc1ccc2c(c1)CCN2C(=O)c1cc(Cl)c(O)c(Cl)c1` [Example 78, (5-amino-2,3-dihydroindol-1-yl)-(3,5-dichloro-4-hydroxyphenyl)-methanone], for which the IC50 was in the range of 100 to 1000 nM.

Regarding `O=C(c1cc(Br)c(O)c(Br)c1)N1CCOc2ccc(F)cc21` [Example 79, (3,5-dibromo-4-hydroxyphenyl)-(6-fluoro-2,3-dihydrobenzo[1,4]oxazin-4-yl)-methanone], the IC50 was below 100 nM.

Take `O=C(c1cc(Br)c(O)c(Br)c1)N1CCOc2ccc3ccccc3c21` [Example 80, (3,5-dibromo-4-hydroxyphenyl)-(2,3-dihydronaphtho[2,1-b][1,4]oxazin-1-yl)-methanone]: the IC50 was below 100 nM.

The values above are taken from US20080064871A1, “Production Method of Nitrogen-Containing Fused Ring Compounds” (Japan Tobacco Inc., priority 2006, published 2008).
